Measurements from US5952511A, “Indolin-2-one derivatives” (Chugai Seiyaku Kabushiki Kaisha, priority 1993, dated 1999).

Tests used:
gastric acid secretion = experiment: Inhibitory Activity on Gastric Acid Secretion in Pylorus Ligated Rats (Test Example 2); assay type: in vivo, rat (Sprague-Dawley, male); details: Rattus norvegicus, intraduodenal, i.d., 4 h
Experimental: Inhibitory Activity on Gastric Acid Secretion in Pyrolus Ligated Rats
Sprague-Dawley male rats weighing about 200 g were deprived of food for 24 hours while allowed water ad libitum. The abdomen was opened under anesthesia with ethyl ether, the pyrolus ligated, and the abdomen closed. The rats were deprived of food and water for 4 hours until they were surcrified with ethyl ether. The stomach was removed, and gastric juice was collected and measured. The gastric juice was centrifuged at 3000 rpm, and the supernatant was titrated up to pH 7.0 with 0.1N NaOH solution to obtain the acidity of the gastric juice. The amount of the gastric acid output was calculated by multiplying the gastric juice volume by the acidity, and the percent inhibition of acid secretion was obtained according to the following equation. A test compound, suspended in a 3% gum arabic solution, was administered intraduodenally at a dose of 2 ml/kg immediately after the pyrolus ligation.
Inhibition (%)=[(Average amount of gastric acid output in control group--Average amount of gastric acid output in test group)/Average amount of gastric acid secreted […]]×100

[1] = biological target: T1, gastrin receptors (guinea pig gastric glands) (Cavia porcellus, UniProt H0VZC5); experiment: Gastrin Receptor Binding Test in Guinea Pig Gastric Glands (Test Example 1); parameters: species or system guinea pig (Hartley, male); details: inhibition of specific 125I-gastrin I human binding (22.5 pM), 25° C., 45 min
T1 construct: The gastric glands were isolated from the tissue with a pipette; from tissue; host or cells: isolated gastric glands from gastric mucosa of Hartley male guinea pigs
T1 sequence (H0VZC5 1-426): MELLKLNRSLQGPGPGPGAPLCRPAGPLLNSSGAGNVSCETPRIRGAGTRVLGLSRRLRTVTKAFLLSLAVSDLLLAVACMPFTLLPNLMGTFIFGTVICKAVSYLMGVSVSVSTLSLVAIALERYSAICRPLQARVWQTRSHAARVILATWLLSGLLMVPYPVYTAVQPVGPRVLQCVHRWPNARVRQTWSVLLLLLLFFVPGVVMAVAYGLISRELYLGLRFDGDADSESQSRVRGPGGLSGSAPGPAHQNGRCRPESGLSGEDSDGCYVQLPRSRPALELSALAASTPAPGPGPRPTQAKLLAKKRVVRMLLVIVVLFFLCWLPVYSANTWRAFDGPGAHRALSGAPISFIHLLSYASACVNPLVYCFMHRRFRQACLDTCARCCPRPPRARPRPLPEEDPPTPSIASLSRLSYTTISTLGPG
Experimental: Gastrin Receptor Binding Test in Guinea Pig Gastric Glands
Preparation of Gastric Glands:
Guinea pig gastric glands were prepared according to the method of Chang, et al., Biochem. Biophys. Res. Commun., 134, 895 (1986). The gastric mucosa of a Hartley male guinea pig was peeled off. After washing, the mucosa was minced with scissors in buffer A (Eagle's MEM containing 2 mM L-glutamine and 25 mM HEPES; pH 7.4). After washing, the minced tissue was incubated in buffer A containing 0.025% collagenase, 0.01% soy bean trypsin inhibitor, and 0.1% BSA at 37° C. for 60 minutes under 95% O2 and 5% CO2. The gastric glands were isolated from the tissue with a pipette, washed twice with buffer A, and filtered through a mesh. Then, the gastric glands were obtained by centrifugation.
Guinea pig gastric glands were resuspended in buffer B (Hank's solution containing 10 mM HEPES and 0.2% BSA; pH 7.4) (10 ml of buffer B per guinea pig).
To 200 μl of the suspension containing the resuspended isolated gastric glands were added 20 μl of ^125 I-gastrin I human (final concentration: 22.5 pM). Then, 10 μl of a test compound or a solvent (for total binding) or 10 μM Pentagastrin (for nonspecific binding), and buffer B was added there to make a total volume of 1 ml. The reaction mixture was incubated at 25° C. for 45 minutes and then centrifuged at 12000 g. The supernatant was removed by suction, and the radioactivity of the isolated gastric glands was measured with a gamma-counter.
The specific binding of gastrin to gastrin receptors was obtained from a difference between the total binding and the nonspecific binding. The IC50 of the test compound in inhibition of specific binding was calculated.

Row | IC50 [1] [nM] | SMILES | inhibition in vivo at 10 mg/kg (gastric acid secretion) [%] | inhibition in vivo at 3 mg/kg (gastric acid secretion; 3 mg/kg) [%]
1 | 1.6 | CCOC(CN1C(=O)C(CC(=O)Nc2ccc(C)cc2)(NC(=O)Nc2cccc(C)c2)c2ccccc21)OCC (racemic) [Example 81, (RS)-1-(2,2-Diethoxyethyl)-3-((4-methylphenyl)aminocarbonylmethyl)-3-(N'-(3-methylphenyl)ureido)indolin-2-one] | 59 | 
2 | 1.2 | CCOC(CN1C(=O)C(CC(=O)Nc2ccc(C)cc2)(NC(=O)Nc2cccc(OC)c2)c2ccccc21)OCC (racemic) [Example 85, (RS)-1-(2,2-Diethoxyethyl)-3-(N'-(3-methoxyphenyl)ureido)-3-((4-methylphenyl)aminocarbonylmethyl)indolin-2-one] | 72 | 
3 | 5.8 | CCOC(CN1C(=O)C(CC(=O)Nc2ccc(C)cc2)(NC(=O)Nc2cccc(Cl)c2)c2ccccc21)OCC (racemic) [Example 89, (RS)-3-(N'-(3-Chlorophenyl)ureido)-1-(2,2-diethoxyethyl)-3-((4-methylphenyl)aminocarbonylmethyl)indolin-2-one] | 65 | 
4 | 3.5 | CCOC(CN1C(=O)C(CC(=O)Nc2ccc(C)cc2)(NC(=O)Nc2cccc(F)c2)c2ccccc21)OCC (racemic) [Example 94, (RS)-1-(2,2-Diethoxyethyl)-3-(N'-(3-fluorophenyl)ureido)-3-((4-methylphenyl)aminocarbonylmethyl)indolin-2-one] | 70 | 
5 | 1.1 | CCOC(CN1C(=O)C(CC(=O)Nc2ccc(OC)cc2)(NC(=O)Nc2cccc(OC)c2)c2ccccc21)OCC (racemic) [Example 148, (RS)-1-(2,2-Diethoxyethyl)-3-((4-methoxyphenyl)aminocarbonylmethyl)-3-(N'-(3-methoxyphenyl)ureido)indolin-2-one] | 63 | 
6 | 0.93 | CCOC(CN1C(=O)C(CC(=O)Nc2ccc(Cl)cc2)(NC(=O)Nc2cccc(OC)c2)c2ccccc21)OCC (racemic) [Example 149, (RS)-3-((4-Chlorophenyl)aminocarbonylmethyl)-1-(2,2-diethoxyethyl)-3-(N'-(3-methoxyphenyl)ureido)indolin-2-one] | 69 | 
7 | 2.9 | CCOC(CN1C(=O)C(CC(=O)Nc2cccc(OC)c2)(NC(=O)Nc2cccc(OC)c2)c2ccccc21)OCC (racemic) [Example 151, (RS)-1-(2,2-Diethoxyethyl)-3-((3-methoxyphenyl)aminocarbonylmethyl)-3-(N'-(3-methoxyphenyl)ureido)indolin-2-one] | 62 | 
8 | 2.1 | CCOC(CN1C(=O)C(CC(=O)Nc2cccc(C)c2)(NC(=O)Nc2cccc(OC)c2)c2ccccc21)OCC (racemic) [Example 152, (RS)-1-(2,2-Diethoxyethyl)-3-(N'-(3-methoxyphenyl)ureido)-3-((3-methylphenyl)aminocarbonylmethyl)indolin-2-one] | 64 | 
9 | 1 | CCOC(CN1C(=O)C(CC(=O)Nc2ccc(F)cc2)(NC(=O)Nc2cccc(OC)c2)c2ccccc21)OCC (racemic) [Example 154, (RS)-1-(2,2-Diethoxyethyl)-3-((4-fluorophenyl)aminocarbonylmethyl)-3-(N'-(3-methoxyphenyl)ureido)indolin-2-one] | 59 | 
10 | 2.6 | CCOC(CN1C(=O)C(CC(=O)Nc2ccc(Cl)cc2)(NC(=O)Nc2ccc(Cl)cc2)c2ccccc21)OCC (racemic) [Example 168, (RS)-3-((4-Chlorophenyl)aminocarbonylmethyl)-3-(N'-(4-chlorophenyl)ureido)-1-(2,2-diethoxyethyl)indolin-2-one] | 61 | 
11 | 1.9 | CCOC(CN1C(=O)C(CC(=O)Nc2ccc(Cl)cc2)(NC(=O)Nc2ccc(OC)cc2)c2ccccc21)OCC (racemic) [Example 169, (RS)-3-(-(4-Chlorophenyl)aminocarbonylmethyl)-1-(2,2-diethoxyethyl)-3-(N'-(4-methoxyphenyl)ureido)indolin-2-one] | 52 | 
12 | 0.35 | CCOC(CN1C(=O)C(CC(=O)Nc2ccc(C)cc2)(NC(=O)Nc2cccc(OC)c2)c2ccccc21)OCC (single isomer, unassigned; (+)) [Example 188, (+)-1-(2,2-Diethoxyethyl)-3-(4-methylphenyl)aminocarbonylmethyl-3-(N'-(3-methoxyphenyl)ureido)indolin-2-one] |  | 76

More lines, now with the values behind:

Row | SMILES | IC50 [1] [nM] | inhibition in vivo at 10 mg/kg (gastric acid secretion) [%] | inhibition in vivo at 3 mg/kg (gastric acid secretion; 3 mg/kg) [%]
13 | CCOC(CN1C(=O)C(CC(=O)Nc2ccc(C)cc2)(NC(=O)Nc2ccc(OC)cc2)c2ccccc21)OCC (racemic) [Example 79, (RS)-1-(2,2-Diethoxyethyl)-3-(N'-(4-methoxyphenyl)ureido)-3-((4-methylphenyl)aminocarbonylmethyl)indolin-2-one] | 1.9 | 47 | 
14 | CCOC(CN1C(=O)C(CC(=O)Nc2ccc(C)cc2)(NC(=O)Nc2ccc(F)cc2)c2ccccc21)OCC (racemic) [Example 82, (RS)-1-(2,2-Diethoxyethyl)-3-(N'-(4-fluorophenyl)ureido)-3-((4-methylphenyl)aminocarbonylmethyl)indolin-2-one] | 6.2 | 56 | 
15 | CCOC(CN1C(=O)C(CC(=O)Nc2ccc(C)cc2)(NC(=O)Nc2ccccc2)c2ccccc21)OCC (racemic) [Example 84, (RS)-1-(2,2-Diethoxyethyl)-3-((4-methylphenyl)aminocarbonylmethyl)-3-(N'-phenylureido)indolin-2-one] | 3.4 | 68 | 
16 | CCOC(CN1C(=O)C(CC(=O)Nc2ccc(F)cc2)(NC(=O)Nc2ccc(C)cc2)c2ccccc21)OCC (racemic) [Example 124, (RS)-1-(2,2-Diethoxyethyl)-3-((4-fluorophenyl)aminocarbonylmethyl)-3-(N'-(4-methylphenyl)ureido)indolin-2-one] | 5.3 | 54 | 
17 | CCOC(CN1C(=O)C(CC(=O)Nc2ccc(N)cc2)(NC(=O)Nc2ccc(C)cc2)c2ccccc21)OCC (racemic) [Example 125, (RS)-3-((4-Aminophenyl)aminocarbonylmethy)-1-(2,2-diethoxyethyl)-3-(N'-(4-methylphenyl)ureido)indolin-2-one] | 2.5 | 54 | 
18 | CCOC(CN1C(=O)C(CC(=O)Nc2ccc(N(C)C(=O)C(F)(F)F)cc2)(NC(=O)Nc2ccc(C)cc2)c2ccccc21)OCC (racemic) [Example 131, (RS)-1-(2,2-Diethoxyethyl) 3-((4-(N-trifluoromethylcarbonyl-N-methylamino)phenyl)aminocarbonylmethyl)-3-(N'-(4-methylphenyl)ureido)indolin-2-one] | 23 | 65 | 
19 | CCOC(CN1C(=O)C(CC(=O)Nc2ncccn2)(NC(=O)Nc2ccc(C)cc2)c2ccccc21)OCC (racemic) [Example 132, (RS)-1-(2,2-Diethoxyethyl)-3-(N'-(4-methylphenyl)ureido)-3-((2-pyrimidinyl)aminocarbonylmethyl)indolin-2-one] | 8.9 | 52 | 
20 | CCOC(CN1C(=O)C(CC(=O)Nc2ccc(F)cc2)(NC(=O)Nc2ccc(F)cc2)c2ccccc21)OCC (racemic) [Example 170, (RS)-1-(2,2-Diethoxyethyl)-3-((4-fluorophenyl)aminocarbonylmethyl)-3-(N'-(4-fluorophenyl)ureido)indolin-2-one] | 5.1 | 63 | 
